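Values below derive from 48-hour exposures of cells grown in 96-well plates, with endpoints linearly interpolated between the two concentrations bracketing the appropriate inhibition level. TGI: concentration producing complete growth inhibition.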
Experiments:
Assay in all cases: growth of human tumour cells (NCI), 48 h
IGROV1 ovarian = test system: IGROV1 ovarian
CCRF-CEM leukemia = test system: CCRF-CEM leukemia
BT-549 breast = test system: BT-549 breast
MALME-3M melanoma = test system: MALME-3M melanoma
HCC-2998 colon = test system: HCC-2998 colon
NCI/ADR-RES ovarian = test system: NCI/ADR-RES ovarian
LOX IMVI melanoma = test system: LOX IMVI melanoma
HT29 colon = test system: HT29 colon
A498 renal = test system: A498 renal
OVCAR-8 ovarian = test system: OVCAR-8 ovarian
ACHN renal = test system: ACHN renal
NCI-H522 lung = test system: NCI-H522 lung

| SMILES | TGI (IGROV1 ovarian) [µM] | TGI (CCRF-CEM leukemia) [µM] | TGI (BT-549 breast) [µM] | TGI (MALME-3M melanoma) [µM] | TGI (HCC-2998 colon) [µM] | TGI (NCI/ADR-RES ovarian) [µM] | TGI (LOX IMVI melanoma) [µM] | TGI (HT29 colon) [µM] | TGI (A498 renal) [µM] | TGI (OVCAR-8 ovarian) [µM] | TGI (ACHN renal) [µM] | TGI (NCI-H522 lung) [µM] |
| --- | --- | --- | --- | --- | --- | --- | --- | --- | --- | --- | --- | --- |
| Cc1ccc(S[C@@](C=O)(NC(=O)OCc2ccccc2)C(F)(F)F)cc1 | 54.3 | 52.3 | 81.8 | 78.3 | > 100 | 51.8 | 48.8 | 37.9 | > 100 | 43.7 | – | – |
| NC1=NC2(COC(c3ccccc3)(c3ccccc3)c3ccccc3)OC(COC(c3ccccc3)(c3ccccc3)c3ccccc3)C(O)C2O1 (stereo not drawn) | > 100 | > 100 | > 100 | > 100 | – | > 100 | > 100 | > 100 | > 100 | > 100 | > 100 | > 100 |
| Cc1cc(N(CCC#N)CCC#N)ccc1/C(N=Nc1ccccc1)=N\NC(=O)c1cc(Cl)ccc1O | > 100 | 96.3 | 57 | 78.3 | 31.8 | 72.7 | – | 35.4 | > 100 | 81.5 | 42.6 | 31 |
| O=C(c1ccc(Cl)cc1)N(C(=O)N1CCCCC1)c1ccccc1 | > 100 | > 100 | > 100 | > 100 | – | > 100 | > 100 | > 100 | > 100 | > 100 | > 100 | – |
| C=CCON(C(=O)OC(C)(C)C)C(C)(C)C | > 100 | > 100 | > 100 | > 100 | > 100 | > 100 | > 100 | > 100 | > 100 | > 100 | > 100 | > 100 |
| COc1cc2nc(Cl)nc(NS(=O)(=O)c3cc4ccccc4s3)c2cc1OC | 71.8 | 33 | 57.9 | > 100 | 39.3 | > 100 | 59.5 | 88.9 | 35.3 | > 100 | 99.6 | 74.6 |
| CC(C)(C)OC(=O)N(CCCCNC(=O)C(F)(F)F)CCCNC(=O)C(F)(F)F | > 100 | > 100 | > 100 | – | > 100 | > 100 | – | > 100 | > 100 | > 100 | > 100 | > 100 |
| CC1=NN(c2nc(N)nc(C(C)Cl)n2)C(C)(C)C1 (stereo not drawn) | > 100 | > 100 | > 100 | – | > 100 | > 100 | > 100 | > 100 | > 100 | > 100 | > 100 | – |
| O=C(NCCC1CNc2ccccc21)OCc1ccccc1 (stereo not drawn) | > 100 | > 100 | > 100 | > 100 | > 100 | > 100 | – | > 100 | > 100 | > 100 | > 100 | > 100 |
| Cc1c(C)c2c(c(N)c1C#N)C(=O)N(Cc1ccc(S(N)(=O)=O)cc1)C2=O | > 59.7 | > 100 | > 100 | > 100 | > 100 | > 100 | > 100 | > 100 | > 70.6 | > 35.7 | > 63.4 | – |
| C[C@H]1CC[C@@]2(OC1)O[C@H]1C[C@H]3[C@@H]4CC[C@@H]5C[C@@H](OC6OC(CO)C(O)C(O)C6OC6OC(CO)C(O)C(O)C6O)CC[C@]5(C)[C@H]4CC[C@]3(C)[C@H]1[C@@H]2C (stereo partly drawn) | 4.14 | 3.73 | 4.1 | 4.5 | 3.71 | 5.03 | 3.75 | 3.68 | – | 4.26 | 3.82 | 4.75 |
| CCOC(=O)C1(C/C=C\CBr)CCCC1=O (stereo not drawn) | > 100 | – | 80.3 | > 100 | – | 57.2 | 31.2 | > 100 | > 100 | > 100 | 56.5 | 46.8 |
| CC(SC(=S)N1CCOCC1)C(=O)Nc1nnc(-c2ccc(Cl)cc2)o1 (stereo not drawn) | > 100 | – | > 100 | > 100 | > 100 | > 100 | > 100 | > 100 | > 100 | > 100 | > 100 | – |
| Cc1cc(O)c(/C=N/C(N)=S)c(=O)o1 | > 100 | 84.4 | > 100 | – | > 100 | > 100 | – | – | – | > 100 | > 100 | > 100 |
| COC(=O)c1c(C)cccc1/C=C1\Cc2ccc(C)c(C)c2C1=O | > 100 | – | > 100 | > 100 | > 100 | – | > 100 | > 100 | > 100 | > 100 | > 100 | > 100 |
| O=C(NCCN(CCNC(=O)c1cccc(O)c1O)CCNC(=O)c1cccc(O)c1O)c1cccc(O)c1O | > 72.4 | – | > 100 | > 52.5 | > 60.2 | > 100 | > 51.5 | > 100 | > 100 | 49.4 | > 67.7 | 15.4 |
| COC1(OC)CCc2c(sc3ncnc(Nc4cccc(Br)c4)c23)C1 | > 100 | – | > 100 | > 100 | > 100 | 76.3 | > 100 | 45.1 | > 100 | > 100 | > 100 | 30.3 |
| O=[N+]([O-])c1ccc(/C=N/Nc2nc3ccccc3[nH]2)o1 | 26.7 | 26.6 | 31.1 | 30.7 | – | > 100 | 35 | 68 | – | 38 | – | 41.2 |
| O=c1[nH]c(N/N=C\C(O)C(O)C(O)C(O)CO)nc2ccccc12 (stereo not drawn) | > 100 | > 100 | > 100 | – | – | > 100 | > 100 | > 100 | > 100 | > 100 | > 100 | – |
| O=c1[nH]c2[nH]c(=S)[nH]c(=S)c2[nH]1 | > 100 | – | > 100 | > 100 | > 100 | > 100 | > 100 | > 100 | > 100 | > 100 | > 100 | > 100 |
